What was measured:
[1] = tested on: SK-N-AS, SK-N-BE(2), SH-EP, WAC2 cells; test: Modified Boyden chamber invasion assay; type: cell-based, human; settings: 24-h treatment, same doses as scratch assay; four cell lines
Experimental: Since the established neuroblastoma cell lines grow as adherent cells, migration in SK-N-AS, SK-N-BE(2), SH-EP, and WAC2 cells was examined using monolayer wound healing (scratch) assay. […] Once cells reached 80% confluence, a sterile 200 μL pipette tip was used to make a standard scratch in the cell layer. Photographs of the plates were obtained at 0, 12, 24, and 36 h. ImageJ MRI Wound Healing Tool (http://imagej.nih.gov/ij/ (accessed on 14 October 2019) quantified the open wound area, and data reported as fold change of the open area ± SEM. Invasion was evaluated with a modified Boyden chamber technique. The insert bottoms were coated with collagen type I (10 µg/mL, MP Biomedicals, Santa Ana, CA, USA). The insert tops were coated with a layer of Matrigel^TM (1 mg/mL, 50 μL, BD Biosciences). Cells were treated for 24 h with 792 (SK-N-AS 10 μM; SK-N-BE(2), SH-EP, WAC2 15 μM) or 1154 (SK-N-AS, SK-N-BE(2) 10 μM; SH-EP, WAC2 15 μM), plated (4 × 10^4 cells), and allowed to invade through the membrane for 24 h. Insert membranes were fixed using 4% paraformaldehyde, stained with 1% crystal violet for 15 min, photographed, and invasion quantified with ImageJ (http://imagej.nih.gov/ij/ (accessed on 10 September 2019)). Invasion data were reported as mean percent membrane occupied by cells ± SEM. Experiments were completed with at least three biologic replicates.

[2] = tested on: SK-N-BE(2) cells; test: CellTiter 96 proliferation, SK-N-BE(2); type: cell-based; settings: Homo sapiens, SKNBE2, 24 h
Experimental: (§1) CellTiter 96® Aqueous One Solution Cell Proliferation assay (Promega, Madison, WI, USA) was used to examine proliferation, and alamarBlue® assay (Thermo Fisher Scientific, Inc.) was used to evaluate viability. Cells, concentrations ranging from 5 × 10^3 to 1.5 × 10^4, depending on cell type due to wide variation in growth characteristics between established cell lines and PDX cells, were plated in 96-well plates and treated with increasing doses of 792 or 1154 for 24 h. CellTiter 96® or alamarBlue® dye (10 µL) was added for proliferation and viability assays, respectively. A microplate reader (Epoch Microplate Spectrophotometer, BioTek Instruments, Winooski, VT) measured absorbance at 490 nm for CellTiter 96® and at 570 nm for alamarBlue®, using 600 nm as a reference. […] Experiments were completed with at least three biologic replicates, and data reported as fold change ± SEM. […]
(§2) Supplemental Table S1: Neuroblastoma cells had the highest sensitivity to 792 and 1154.
(§3) (A) SK-N-AS and (B) SK-N-BE(2) cells (1.5 x 104) were plated in 96-well plates and treated with increasing doses of nine PP2A activating compounds for 24 hours. Compounds 792 and 1154 had the lowest LD50s of the nine compounds investigated in both cell lines.
(§4) Supplemental Figure S4: SK-N-AS cells were treated with FTY720 (0, 5 μM), 792 (10 μM), or 1154 (10 μM) for 24 hours and PP2A activity was measured. […]

[3] = Microsome (oxidative metabolism) stability, mouse; type: in vitro ADME; settings: for half-life at 1 µM: liver microsomes 0.5 mg/mL, NADPH, read-out: T1/2 Mouse; for microsomal CLint at 1 µM: liver microsomes, read-out: CL Mouse
Experimental: Microsome stability assays were performed by Bioduro, LLC. Briefly, 2.5 µL (100 µM in DMSO) of test compounds are added to 197.5 µL of human, rat, or mouse microsome preparation (0.633 mg/mL in phosphate buffer) and mixed gently at 37 °C. The reaction is started by adding 50 µL NADPH (5 mM in phosphate buffer) and mixing at 37 °C. The final reaction microsome concentration is 0.5 mg/mL. The reaction is sampled at 0, 5, 15, 30, and 60 min. Reaction aliquots are quenched by adding to 1:1 methanol–acetonitrile containing analytical standards and analyzed by liquid chromatography with tandem mass spectrometry (LC-MS/MS).

[4] = tested on: SH-EP cells; test: Cell cycle analysis by flow cytometry (PI), SH-EP; type: cell-based, human; settings: 24 h; for Mean % G1 (± SEM) / Mean % G2 (± SEM) / Mean % S (± SEM) / percentage of cells in the S phase / percentage of cells in G1: SH-EP, 15 μM; for percentage of cells in the S phase: untreated 30.9 ± 2.1; for percentage of cells in G1: untreated 42.6 ± 2.4
Experimental: To evaluate cell cycle, cells (1 × 10^6) were plated and maintained in respective media with reduced FBS (4%) for cell synchronization. […] Cells were washed with phosphate-buffered saline (PBS) and fixed at 4 °C for 30 min with 100% ethanol. Following a second PBS wash, cells were stained with propidium iodide (PI, Invitrogen, Waltham, MA, USA), RNAse A (0.1 mg/mL, Qiagen, Germantown, MD, USA), and 0.1% TritonX (Active Motif, Carlsbad, CA, USA), and FACSCalibur^TM Flow Cytometer (BD Biosciences, Franklin Lakes, NJ, USA) was used for examination. FlowJo software (FlowJo, LLC, Ashland, OR, USA) was used for data analysis. Data reported as mean percentage cells in phase ± SEM.

[5] = tested on: PP2A; test: PP2A immunoprecipitation phosphatase assay in SK-N-AS cells; type: cell-based, human; settings: 24 h; for PP2A activation compared with FTY720: 10 μM vs FTY720 5 μM, p ≤ 0.01; for PP2A activation (percent PP2A activity): 10 μM, control 100 ± 0%
Experimental: SK-N-AS cells (1 × 10^6) were treated with FTY720 (5 μM), 792 (10 μM), or 1154 (10 μM) for 24 h and lysed using HEPES (AC215001000, Thermo Fisher Scientific Inc.), MgCl2 (MX0045-4, EM Science, Gibbstown, NJ, USA), KCl (02-003-741, Thermo Fisher Scientific Inc.), PMSF (Sigma Aldrich), dithiothreitol (EC-601, National Diagnostics, Atlanta, GA, USA), and Igepal CA-630 ([…], Sigma Aldrich) for 20 min on ice. Cell lysates were centrifuged at 17,000 rpm for 30 min at 4 °C. The commercially available PP2A Immunoprecipitation Phosphatase Assay Kit (17-313, EMD Millipore) has been used by other investigators to directly measure PP2A activity and was utilized per manufacturer's protocol to evaluate the activity of PP2A following treatment and compared to untreated cells. Experiments were completed at least in triplicate, and data reported as mean fold change ± standard error of the mean (SEM).

[6] = tested on: SK-N-BE(2) cells; test: alamarBlue viability, SK-N-BE(2); type: cell-based, human; settings: 24 h
Experimental: as §1, §2, §3, §4

| Compound | Invasion [1] | IC50 [2] | half-life at 1 µM [3] | microsomal CLint at 1 µM [3] | Mean % G1 (± SEM) [4] | Mean % G2 (± SEM) [4] | Mean % S (± SEM) [4] | percentage of cells in the S phase [4] | percentage of cells in G1 [4] | PP2A activation compared with FTY720 [5] | PP2A activation (percent PP2A activity) [5] | LD50 [6] | percent of cells in subG1 ([4]; SH-EP cells) |
| --- | --- | --- | --- | --- | --- | --- | --- | --- | --- | --- | --- | --- | --- |
| O=S(=O)(NC1CCCC(N2c3ccccc3CCc3ccccc32)C1O)c1ccc(OC(F)(F)F)cc1 (stereo not shown) [DBK-1154] | significantly decreased | 23.8 µM | 6 min | 234 µL/min/mg | 52.0 (± 2.2) % | 14.6 (± 4.9) % | 26.3 (± 2.0) % | 26.3 ± 2% | 52 ± 2.2% | significantly more than FTY720 | 134.8 ± 18.4% | 16.6 µM |  |
| O=S(=O)(N[C@H]1COC[C@@H](n2c3ccc(Cl)cc3c3cc(Cl)ccc32)[C@@H]1O)c1ccc(OC(F)(F)F)cc1 [ATUX-792] | significantly decreased | 17.2 µM | > 256 min | < 5 µL/min/mg | 58.4 (± 2.3) % | 12.1 (± 2.6) % | 21.0 (± 1.4) % | 21 ± 1.4% | 58.4 ± 2.3% | significantly more than FTY720 | 117.5 ± 5.6% | 17.2 µM | significant increase in the percent of cells in subG1 |

Reference: paper PMC9026148, “Pre-Clinical Study Evaluating Novel Protein Phosphatase 2A Activators as Therapeutics for Neuroblastoma” (Cancers, 2022)
